Here are results for five molecules from ChEMBL document CHEMBL1212839 (J Med Chem, 2010).

A word on the inhibition: it is the relative decrease from the control value, in per cent. High values mean a strong effect, low ones a weak effect. One may read the Ki as the dissociation constant of the complex between target and ligand, obtained from inhibition or displacement. A high value points to a looser hold on the target. The term pIC50 denotes the IC50 on a negative log10 scale, so that one unit is a factor of ten. As a reminder, the EC50 is the concentration needed to bring the measured effect to its halfway point. By pEC50 is commonly meant the negative decadic logarithm of the EC50, by convention in mol/L. The Emax is the maximal effect, on the per cent scale that the assay sets. What is called IC50 is the concentration that inhibits the measured activity by half. A higher IC50 goes with a need for much substance.

Assay [1] deals with Mu-type opioid receptor (Cavia porcellus) (UniProt P97266). Conditions: Ileum, 1 uM.
The target in another assay is Substance-P receptor (Homo sapiens, UniProt P25103). In words: Displacement of [3H]substance P frome human NK1 receptor. (In general: Loss of bound radioactivity is the signal in a displacement assay; it reports binding, not function.)
In assay [2] the target is T1, Mu-type opioid receptor (Rattus norvegicus, UniProt P33535). In words: Displacement of [3H]DPDPE from rat mu opioid receptor.
The target of assay [3] is T2, Delta-type opioid receptor (Homo sapiens, UniProt P41143). Description: Displacement of [3H]DPDPE from human delta opioid receptor.
In assay [4] the target is T2, Delta-type opioid receptor. Description: Agonist activity at human opioid delta receptor expressed in mouse HN9.10 cells assessed as [35S]GTPgammaS binding. The class given is functional, cell-based.
Assay [5] has as its target T1, Mu-type opioid receptor. Description: Agonist activity at rat mu opioid receptor expressed in mouse HN9.10 cells assessed as [35S]GTPgammaS binding. In kind it is functional, cell-based. A general note: GTPγS resists hydrolysis and so accumulates on activated G proteins.
The target in assay [6] is Mu-type opioid receptor (Rattus norvegicus) (UniProt P33535). Description: Agonist activity at rat mu opioid receptor expressed in mouse HN9.10 cells assessed as [35S]GTPgammaS binding relative to control. In kind it is functional, cell-based.
Assay [7] addresses T3, Delta-type opioid receptor (Mus musculus, UniProt P32300).
Assay [8] has as its target Substance-P receptor (Cavia porcellus) (UniProt P30547). Conditions: Ileum.
For assay [9], the target named is T3, Delta-type opioid receptor. The source holds these as a separate data set.

Mu-type opioid receptor (Cavia porcellus), sequence (P97266 whole entry): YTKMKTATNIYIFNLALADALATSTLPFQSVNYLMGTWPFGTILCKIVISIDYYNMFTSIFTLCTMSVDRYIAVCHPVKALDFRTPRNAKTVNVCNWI
T1 sequence (P33535 whole entry): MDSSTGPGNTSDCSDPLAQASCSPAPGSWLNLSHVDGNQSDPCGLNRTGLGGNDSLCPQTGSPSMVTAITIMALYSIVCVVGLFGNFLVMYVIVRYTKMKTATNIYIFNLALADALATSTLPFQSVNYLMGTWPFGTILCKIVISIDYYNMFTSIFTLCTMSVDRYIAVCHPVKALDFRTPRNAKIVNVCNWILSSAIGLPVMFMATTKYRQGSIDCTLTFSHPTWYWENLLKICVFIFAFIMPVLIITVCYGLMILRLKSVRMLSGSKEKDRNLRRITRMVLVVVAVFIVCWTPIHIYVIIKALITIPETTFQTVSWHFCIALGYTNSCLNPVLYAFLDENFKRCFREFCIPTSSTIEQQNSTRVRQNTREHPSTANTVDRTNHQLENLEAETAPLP
T2 sequence (P41143 whole entry): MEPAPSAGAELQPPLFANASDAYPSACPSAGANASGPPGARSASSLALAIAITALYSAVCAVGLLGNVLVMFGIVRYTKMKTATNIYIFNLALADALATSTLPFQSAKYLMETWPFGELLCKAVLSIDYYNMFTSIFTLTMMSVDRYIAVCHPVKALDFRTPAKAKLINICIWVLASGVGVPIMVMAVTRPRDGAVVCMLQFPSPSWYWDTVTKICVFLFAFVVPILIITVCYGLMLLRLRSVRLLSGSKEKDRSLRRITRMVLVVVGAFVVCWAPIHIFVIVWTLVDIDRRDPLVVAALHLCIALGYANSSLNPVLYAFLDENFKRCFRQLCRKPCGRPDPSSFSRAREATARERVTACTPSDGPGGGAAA
Substance-P receptor, sequence (P25103 whole entry): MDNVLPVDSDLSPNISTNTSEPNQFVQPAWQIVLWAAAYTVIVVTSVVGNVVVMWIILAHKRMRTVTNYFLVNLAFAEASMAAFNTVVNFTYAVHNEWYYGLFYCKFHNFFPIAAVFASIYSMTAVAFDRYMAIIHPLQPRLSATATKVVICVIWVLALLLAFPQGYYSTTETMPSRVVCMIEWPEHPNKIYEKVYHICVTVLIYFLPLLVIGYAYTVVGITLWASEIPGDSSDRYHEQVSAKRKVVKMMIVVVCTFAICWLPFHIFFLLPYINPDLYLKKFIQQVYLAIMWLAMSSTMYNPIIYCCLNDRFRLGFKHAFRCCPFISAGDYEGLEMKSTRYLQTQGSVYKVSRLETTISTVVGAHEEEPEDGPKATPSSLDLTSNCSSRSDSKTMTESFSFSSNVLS
T3 sequence (P32300 whole entry): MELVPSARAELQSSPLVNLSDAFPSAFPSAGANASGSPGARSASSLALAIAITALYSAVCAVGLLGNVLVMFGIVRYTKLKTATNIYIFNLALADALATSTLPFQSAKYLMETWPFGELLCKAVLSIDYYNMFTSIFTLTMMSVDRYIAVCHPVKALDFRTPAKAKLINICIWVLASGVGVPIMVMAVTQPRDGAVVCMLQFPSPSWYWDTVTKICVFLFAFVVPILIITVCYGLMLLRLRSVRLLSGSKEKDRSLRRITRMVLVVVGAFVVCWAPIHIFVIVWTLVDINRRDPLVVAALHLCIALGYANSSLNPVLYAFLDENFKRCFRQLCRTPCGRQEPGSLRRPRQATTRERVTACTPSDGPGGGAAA
Mu-type opioid receptor (Rattus norvegicus), sequence (P33535 whole entry): as the sequence (P33535 whole entry) above
Substance-P receptor (Cavia porcellus), sequence (P30547 whole entry): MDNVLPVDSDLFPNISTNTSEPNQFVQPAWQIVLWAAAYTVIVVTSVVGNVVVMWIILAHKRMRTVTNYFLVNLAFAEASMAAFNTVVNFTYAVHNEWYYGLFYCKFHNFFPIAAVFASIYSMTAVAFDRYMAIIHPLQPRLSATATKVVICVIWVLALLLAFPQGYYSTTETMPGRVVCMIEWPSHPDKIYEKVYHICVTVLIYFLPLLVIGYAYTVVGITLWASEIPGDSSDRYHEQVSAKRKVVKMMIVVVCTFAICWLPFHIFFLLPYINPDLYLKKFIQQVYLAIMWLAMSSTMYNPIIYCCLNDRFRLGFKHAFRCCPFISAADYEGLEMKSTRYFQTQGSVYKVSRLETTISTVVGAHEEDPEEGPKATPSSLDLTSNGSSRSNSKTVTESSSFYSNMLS

With `CC(C)C[C@H](NC(=O)[C@@H]1CCCN1C(=O)[C@@H]1NC(=O)[C@H](Cc2ccccc2)NC(=O)CNC(=O)[C@@H](NC(=O)[C@@H](N)Cc2ccc(O)cc2)C(C)(C)SSC1(C)C)C(=O)N[C@@H](Cc1c[nH]c2ccccc12)C(=O)NCc1cc(C(F)(F)F)cc(C(F)(F)F)c1`, in [1], the inhibition turned out to be 26%.
As to `CCCC[C@@H]1NC(=O)[C@H](Cc2ccccc2)NC(=O)CNC(=O)[C@@H](NC(=O)[C@@H](N)Cc2ccc(O)cc2)C(C)(C)SSC(C)(C)[C@H](C(=O)N2CCC[C@H]2C(=O)N[C@@H](CC(C)C)C(=O)N[C@@H](Cc2c[nH]c3ccccc23)C(=O)NCc2cc(C(F)(F)F)cc(C(F)(F)F)c2)NC(=O)[C@@H]2CCCN2C1=O`, the inhibitory constant (Ki) on Substance-P receptor was 59 nM; at Mu-type opioid receptor [2], 2000 nM; in assay [3], 150 nM. Moreover, the values for the pIC50 (at Substance-P receptor; on Mu-type opioid receptor [2]; in [3]) were 6.87, 5.43 and 6.5, respectively. For the same molecule, the EC50 in [4] came out at 530 nM; on Mu-type opioid receptor [5], 2900 nM. The pEC50 on Mu-type opioid receptor [5] turned out to be 5.67. Also, in assay [6], the Emax was 15%. In addition, the IC50 in [7] stood at 250 nM. The molecule also came in with a Ke in [8] of 72 nM. The same molecule gave an inhibition in assay [1] of 6%.
In the case of `CCCC[C@@H]1NC(=O)[C@H](Cc2ccccc2)NC(=O)CNC(=O)[C@@H](NC(=O)[C@@H](N)Cc2ccc(O)cc2)C(C)(C)SSC(C)(C)[C@@H](C(=O)N2CCC[C@H]2C(=O)N[C@@H](CC(C)C)C(=O)N[C@@H](Cc2c[nH]c3ccccc23)C(=O)NCc2cc(C(F)(F)F)cc(C(F)(F)F)c2)NC(=O)[C@@H]2CCCN2C1=O`, the IC50 at Substance-P receptor is 4.27 nM; at Mu-type opioid receptor [2] it was 2040 nM; in assay [3] it was 1380 nM; in [9], 1100 nM. Besides, the Ki at Substance-P receptor stood at 1.9 nM; on Mu-type opioid receptor [2] it was 1000 nM; in assay [3], 720 nM. The EC50 in assay [4] is 120 nM; at Mu-type opioid receptor [5] it was 140 nM. Moreover, the Emax in assay [6] came to 26%. This molecule came in with a Ke in assay [8] of 66 nM. In [1], the inhibition turned out to be 7%.
With `CC(C)C[C@H](NC(=O)[C@@H]1CCCN1C(=O)[C@H]1NC(=O)[C@H](Cc2ccccc2)NC(=O)CNC(=O)[C@H](NC(=O)[C@@H](N)Cc2ccc(O)cc2)C(C)(C)SSC1(C)C)C(=O)N[C@@H](Cc1c[nH]c2ccccc12)C(=O)NCc1cc(C(F)(F)F)cc(C(F)(F)F)c1`, the 50% inhibitory concentration (IC50) is 0.0123 nM on Substance-P receptor, 4370 nM on Mu-type opioid receptor [2] and 3.63 nM in assay [3].
For the molecule `CC(C)C[C@H](NC(=O)[C@@H]1CCCN1C(=O)[C@H]1NC(=O)[C@H](Cc2ccccc2)NC(=O)CNC(=O)[C@@H](NC(=O)[C@@H](N)Cc2ccc(O)cc2)C(C)(C)SSC1(C)C)C(=O)N[C@@H](Cc1c[nH]c2ccccc12)C(=O)NCc1cc(C(F)(F)F)cc(C(F)(F)F)c1`, the IC50 on Substance-P receptor was 0.417 nM; on Mu-type opioid receptor [2], 4170 nM; in assay [3], 72.4 nM. Further, the results for the Ki (on Substance-P receptor; on Mu-type opioid receptor [2]; in assay [3]) were 0.18 nM, 2100 nM and 38 nM, respectively. For the same molecule, the values for the EC50 (in [4]; at Mu-type opioid receptor [5]) were 120 nM and 130 nM, respectively. Moreover, in assay [1], the inhibition was 0.6%.
